The record followed here is US20120252741A1, “NOVEL SEMI-SYNTHETIC GLYCOPEPTIDES AS ANTIBACTERIAL AGENTS” (priority 2008, published 2012).

Converted amounts (≈) assume the structure as drawn. Where two headings read alike, the source gives them in different places. Bounds are passed on as bounds.

Holding throughout (assay type): cell-based
Test [1] concerns Staphylococcus aureus 757 (MRSA). As to the kind of experiment: MIC, broth microdilution, SA 757. The method in brief:
(§1)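 Susceptibility testing follows the NCCLS broth microdilution protocol in Mueller-Hinton broth, on clinical isolates.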
(In general: In broth dilution the organism is exposed to a series of concentrations in liquid medium.)

The subject of test [2] is Staphylococcus epidermidis 831 (MRSE). The test is described as follows: MIC, broth microdilution, SE 831. As to conditions: for MIC: Staphylococcus epidermidis, read-out: MIC SE 831. The method, boiled down:
as §1

The subject of test [3] is Staphylococcus epidermidis 835. As to the kind of experiment: MIC, broth microdilution, SE 835. The method, boiled down: as §1
The subject of test [4] is Enterococcus faecalis 848 (VRE, Van A). The test is described as follows: MIC, broth microdilution, EFc 848. As to conditions: for MIC: read-out: MIC E FC 848. The method in brief: as §1
The subject of test [5] is Enterococcus faecium 752 (VRE, Van A). As to the kind of experiment: MIC, broth microdilution, EFcm 752. As to conditions: for MIC: read-out: MIC E FCM 752. The method in brief:
as §1

Test [6] concerns Streptococcus pyogenes 712. As to the kind of experiment: MIC, broth microdilution, SPY 712. The method, boiled down: as §1
Test [7] deals with Streptococcus pneumoniae 1195 (ATCC 49619). The test is described as follows: MIC, broth microdilution, SPNE 1195. As to conditions: for MIC: Streptococcus pneumoniae. The method, boiled down:
as §1

The test system of test [8] is Staphylococcus aureus 100 (ATCC 29213). As to the kind of experiment: MIC, broth microdilution, SA 100. As to conditions: for MIC: Staphylococcus aureus. The method in brief: as §1
The test system of test [9] is Enterococcus faecalis 101 (ATCC 29212). As to the kind of experiment: MIC, broth microdilution, EFc 101. As to conditions: for MIC: Enterococcus faecalis. The method, boiled down:
as §1

The subject of the next test is Enterococcus faecium 800. As to the kind of experiment: MIC, broth microdilution, EFcm 800. The method, boiled down:
as §1

In test [10] the test system is Staphylococcus aureus 2012 (VISA). The test is described as follows: MIC, broth microdilution, SA 2012. The method, boiled down: as §1
[11] abbreviates: Table 2, in the presence of 0.002% Polysorbate 80, numeric value, comparison.
Where [12] appears, read: Table 2, VRE, Van A, in the presence of 0.002% Polysorbate 80, numeric value, comparison.
Setting [13] is: Table 1, VRE, Van A, class symbols.
The mark [14] stands for this setting: Table 2, VRE, Van A, in the presence of 0.002% Polysorbate 80, class symbols.

As usually defined, the MIC is the lowest concentration that inhibits growth of the organism. Turning to `CN[C@H](CC(C)C)C(=O)N[C@H]1C(=O)N[C@@H](CC(N)=O)C(=O)N[C@H]2C(=O)N[C@H]3C(=O)N[C@H](C(=O)N[C@H](C(=O)O)c4cc(O)cc(O)c4-c4cc3ccc4O)[C@H](O)c3ccc(c(Cl)c3)Oc3cc2cc(c3O[C@@H]2O[C@H](CO)[C@@H](O)[C@H](O)[C@H]2O[C@H]2C[C@](C)(N)[C@H](O)[C@H](C)O2)Oc2ccc(cc2Cl)[C@H]1O` [Vancomycin, vancomycin, reference compound], the MIC was 1 µg/mL (≈ 0.69 µM) in [1] (read-out: MIC SA 757, Table 1, numeric value, comparison); 2 µg/mL in test [1] (read-out: MIC SA 757, Table 2, in the presence of 0.002% Polysorbate 80, numeric value, comparison); 2 µg/mL (≈ 1.38 µM) in [2]; 4 µg/mL (≈ 2.76 µM) in test [3] (Staphylococcus epidermidis, 835, read-out: MIC SE 835, Table 1, numeric value, comparison); 2 µg/mL in test [3] (Staphylococcus epidermidis, 835, read-out: MIC SE 835, Table 2, in the presence of 0.002% Polysorbate 80, numeric value, comparison); more than 64 µg/mL in [4]. The MIC was more than 64 µg/mL in [5]; 0.5 µg/mL (≈ 0.345 µM) in [6] (Streptococcus pyogenes, 712, read-out: MIC S PYO 712); 0.25 µg/mL (≈ 0.173 µM) in test [7] (ATCC49619, read-out: MIC S PNE 1195); 1 µg/mL (≈ 0.69 µM) in test [8] (ATCC29213, read-out: MIC SA 100); 4 µg/mL (≈ 2.76 µM) in test [9] (ATCC29212, read-out: MIC E FC 101); 1 µg/mL (≈ 0.69 µM) with Enterococcus faecium 800 (Enterococcus faecium, 800, read-out: MIC E FCM 800). For the same molecule, the minimal inhibitory concentration (MIC) in test [10] (read-out: MIC SA 2012, Table 1, numeric value, comparison) is 8 µg/mL (≈ 5.52 µM); in test [10] (read-out: MIC SA 2012, Table 2, in the presence of 0.002% Polysorbate 80, numeric value, comparison), 4 µg/mL. Also, the “MIC SE 831” value in test [2] (setting [11]) came to 2 µg/mL. Further, the “MIC E FC 848” value in test [4] (setting [12]) is more than 64 µg/mL. Further, the “MIC E FCM 752” value in test [5] (setting [12]) is more than 64 µg/mL. The “MIC S PYO 712” value in test [6] (setting [11]) was found to be 0.5 µg/mL. Besides, the “MIC S PNE 1195” value in test [7] (setting [11]) was 0.25 µg/mL. For the same molecule, the “MIC SA 100” value in test [8] (setting [11]) is 1 µg/mL. The “MIC E FC 101” value in test [9] (setting [11]) was 4 µg/mL. Also, the “MIC E FCM 800” value with Enterococcus faecium 800 (setting [11]) is 1 µg/mL.
On to `CCCCOc1ccc(S(=O)(=O)NC(=O)C[C@@H]2NC(=O)[C@H](NC(=O)[C@@H](CC(C)C)NC)[C@H](O)c3ccc(c(Cl)c3)Oc3cc4cc(c3O[C@@H]3O[C@H](CO)[C@@H](O)[C@H](O)[C@H]3O)Oc3ccc(cc3Cl)[C@@H](O)[C@@H]3NC(=O)[C@H](NC(=O)[C@@H]4NC2=O)c2ccc(O)c(c2)-c2c(O)cc(O)cc2[C@@H](C(=O)NC2C4CC5CC(C4)CC2C5)NC3=O)cc1` (some centres unmarked) [Compound 117], for which the minimal inhibitory concentration (MIC) in [1] (Table 1, class symbols, read-out: MIC SA 757) lay within 0.01 to 0.5 µg/mL (≈ 0.00605 to 0.303 µM); in test [2] (Table 1, class symbols), 0.01 to 0.5 µg/mL (≈ 0.00605 to 0.303 µM); in test [3] (Staphylococcus epidermidis, 835, Table 1, class symbols, read-out: MIC SE 835), 0.01 to 0.5 µg/mL (≈ 0.00605 to 0.303 µM); in test [4] (setting [13]), 2 to 4 µg/mL (≈ 1.21 to 2.42 µM); in [5] (setting [13]) it was 1 to 2 µg/mL (≈ 0.605 to 1.21 µM); in [6] (Streptococcus pyogenes, 712, Table 1, class symbols, read-out: MIC S PYO 712) it was 0.01 to 0.5 µg/mL (≈ 0.00605 to 0.303 µM). In addition, the minimal inhibitory concentration (MIC) in test [7] (ATCC49619, Table 1, class symbols, read-out: MIC S PNE 1195) lay in the range of 0.01 to 0.5 µg/mL (≈ 0.00605 to 0.303 µM); in [8] (ATCC29213, Table 1, class symbols, read-out: MIC SA 100) it was 0.01 to 0.5 µg/mL (≈ 0.00605 to 0.303 µM); in test [9] (ATCC29212, Table 1, class symbols, read-out: MIC E FC 101) it was 0.01 to 0.5 µg/mL (≈ 0.00605 to 0.303 µM); with Enterococcus faecium 800 (Enterococcus faecium, 800, Table 1, class symbols, read-out: MIC E FCM 800) it was 0.01 to 0.5 µg/mL (≈ 0.00605 to 0.303 µM); in test [10] (Table 1, class symbols, read-out: MIC SA 2012), 2 to 4 µg/mL (≈ 1.21 to 2.42 µM).
`CCNCCOCc1cc(OCCNCC)cc(C(=O)NC(=O)C[C@@H]2NC(=O)[C@H](NC(=O)[C@@H](CC(C)C)NC)[C@H](O)c3ccc(c(Cl)c3)Oc3cc4cc(c3O[C@@H]3O[C@H](CO)[C@@H](O)[C@H](O)[C@H]3O[C@H]3C[C@](C)(N)[C@H](O)[C@H](C)O3)Oc3ccc(cc3Cl)[C@@H](O)[C@@H]3NC(=O)[C@H](NC(=O)[C@@H]4NC2=O)c2ccc(O)c(c2)-c2c(O)cc(O)cc2[C@@H](C(=O)NC2C4CC5CC(C4)CC2C5)NC3=O)c1` (some centres unmarked) [Compound 164]: the MIC in test [1] (Table 2, in the presence of 0.002% Polysorbate 80, class symbols, read-out: MIC SA 757) is 0.01 to 0.5 µg/mL; in test [2] (Table 2, in the presence of 0.002% Polysorbate 80, class symbols), 0.01 to 0.5 µg/mL; in test [3] (Staphylococcus epidermidis, 835, Table 2, in the presence of 0.002% Polysorbate 80, class symbols, read-out: MIC SE 835), 0.01 to 0.5 µg/mL; in test [4] (setting [14]) it was more than 16 µg/mL; in [5] (setting [14]) it was 8 to 16 µg/mL; in [6] (Streptococcus pyogenes, 712, Table 2, in the presence of 0.002% Polysorbate 80, class symbols, read-out: MIC S PYO 712) it was 0.01 to 0.5 µg/mL. Besides, the MIC in [7] (ATCC49619, Table 2, in the presence of 0.002% Polysorbate 80, class symbols, read-out: MIC S PNE 1195) lay within 0.01 to 0.5 µg/mL; in [8] (ATCC29213, Table 2, in the presence of 0.002% Polysorbate 80, class symbols, read-out: MIC SA 100) it was 0.01 to 0.5 µg/mL; in test [9] (ATCC29212, Table 2, in the presence of 0.002% Polysorbate 80, class symbols, read-out: MIC E FC 101) it was 0.01 to 0.5 µg/mL; with Enterococcus faecium 800 (Enterococcus faecium, 800, Table 2, in the presence of 0.002% Polysorbate 80, class symbols, read-out: MIC E FCM 800), 0.01 to 0.5 µg/mL; in [10] (Table 2, in the presence of 0.002% Polysorbate 80, class symbols, read-out: MIC SA 2012), 1 to 2 µg/mL.
